In US20110305715A1, “ANTIBODIES TO 3-HYDROXYCOTININE AND METHODS OF USE THEREOF” (priority 2010, published 2011):
Converted amounts (≈) assume the structure as drawn.

Tested on: Cotinine MAb 3B11A4
Assay: Competitive microplate ELISA (test principle #1) with immobilized COT MAb and COT-HRP tracer
Format: binding
Conditions: calculated from IC50 values, Cotinine MAb 3B11A4
Procedure: (§1) Competitive microplate EIA for quantification of COT (A) and 3HC (B) by test principle #1. Different concentrations of COT or 3HC and fifteen other NIC metabolites were incubated with an immobilized COT MAb or 3HC MAb in the presence of a constant amount of COT-HRP or 3HC-HRP. The binding of the COT-HRP or 3HC-HRP to its corresponding MAb was detected by the reaction of the HRP with peroxidase substrate. The graph illustrates an inhibition curve that was formed with various concentrations of authentic COT (A) and 3HC (B). Apparent COT or 3HC concentrations are inversely related to the OD450 value.
Specificity and sensitivity of the anti-cotinine monoclonal antibody (COT MAb) were determined in competitive microplate ELISA with COT and a battery of NIC metabolites and tobacco alkaloids using COT-HRP as tracer. […] Apparent COT concentrations are inversely related to the OD450 value.

Structure (SMILES)	Reactivity (%)
CN1C(=O)CCC1c1ccc[n+](C2OC(C(=O)[O-])C(O)C(O)C2O)c1 (stereo not drawn) [Cotinine-gluconuride, cotinine-glucuronide]	<1.5
O=C1CCC(c2cccnc2)N1 (stereo not drawn) [Norcotinine]	<1.5
c1cncc([C@@H]2CCCN2)c1 [Nornicotine]	<1.5
c1cncc(C2=NCCCC2)c1 [Anabaseine]	<1.5
CN1C(=O)CC[C@H]1c1cccnc1 [Cotinine]	100
CN1C(=O)C(O[C@@H]2O[C@H](C(=O)O)[C@@H](O)[C@H](O)[C@H]2O)CC1c1cccnc1 (stereo partly drawn) [3-Hydroxycotinine-gluconuride, 3-hydroxycotinine-glucuronide]	<1.5
CN1C(=O)CC[C@H]1c1ccc[n+]([O-])c1 [Cotinine-N-Oxide, cotinine-N-oxide]	<1.5
CN1CCCC1c1ccc[n+]([O-])c1 (stereo not drawn) [Nicotine-N-Oxide, Nicotine-N-oxide]	<1.5
CN1C(=O)C(O)C[C@H]1c1cccnc1 (stereo partly drawn) [3-Hydroxycotinine]	1.86
c1cncc(-c2ccnc(-c3cccnc3)c2)c1 [Nicotelline]	<1.5
Cn1cccc1-c1cccnc1 [Nicotyrine]	<1.5
C1=CCC(c2cccnc2)NC1 (stereo not drawn) [Anatabine]	<1.5
c1cncc(C2=NCCC2)c1 [Myosmine]	<1.5
CN1CCC[C@H]1c1ccc[n+]([C@@H]2O[C@H](C(=O)[O-])[C@@H](O)[C@H](O)[C@H]2O)c1 [Nicotine-gluconuride, Nicotine-glucuronide]	<1.5
CN1C(=O)CC[C@@]1(O)c1cccnc1 [5-Hydroxycotinine]	4.39
CN1CCCC1c1cccnc1 (stereo not drawn) [Nicotine]	<1.5

Same assay, conditions: competitor vs COT-HRP for Cotinine MAb 3B11A4

Structure (SMILES)	IC50
CN1C(=O)CCC1c1ccc[n+](C2OC(C(=O)[O-])C(O)C(O)C2O)c1 (stereo not drawn) [Cotinine-gluconuride, cotinine-glucuronide]	>5,000 ng/mL
O=C1CCC(c2cccnc2)N1 (stereo not drawn) [Norcotinine]	>5,000 ng/mL
c1cncc([C@@H]2CCCN2)c1 [Nornicotine]	>5,000 ng/mL
c1cncc(C2=NCCCC2)c1 [Anabaseine]	>5,000 ng/mL
CN1C(=O)CC[C@H]1c1cccnc1 [Cotinine]	66.1 ng/mL (≈ 0.375 µM)
CN1C(=O)C(O[C@@H]2O[C@H](C(=O)O)[C@@H](O)[C@H](O)[C@H]2O)CC1c1cccnc1 (stereo partly drawn) [3-Hydroxycotinine-gluconuride, 3-hydroxycotinine-glucuronide]	>5,000 ng/mL
CN1C(=O)CC[C@H]1c1ccc[n+]([O-])c1 [Cotinine-N-Oxide, cotinine-N-oxide]	>5,000 ng/mL
CN1CCCC1c1ccc[n+]([O-])c1 (stereo not drawn) [Nicotine-N-Oxide, Nicotine-N-oxide]	>5,000 ng/mL
CN1C(=O)C(O)C[C@H]1c1cccnc1 (stereo partly drawn) [3-Hydroxycotinine]	3545.0 ng/mL (≈ 18.4 µM)
c1cncc(-c2ccnc(-c3cccnc3)c2)c1 [Nicotelline]	>5,000 ng/mL
Cn1cccc1-c1cccnc1 [Nicotyrine]	>5,000 ng/mL
C1=CCC(c2cccnc2)NC1 (stereo not drawn) [Anatabine]	>5,000 ng/mL
c1cncc(C2=NCCC2)c1 [Myosmine]	>5,000 ng/mL
CN1CCC[C@H]1c1ccc[n+]([C@@H]2O[C@H](C(=O)[O-])[C@@H](O)[C@H](O)[C@H]2O)c1 [Nicotine-gluconuride, Nicotine-glucuronide]	>5,000 ng/mL
CN1C(=O)CC[C@@]1(O)c1cccnc1 [5-Hydroxycotinine]	1505.2 ng/mL (≈ 7.83 µM)
CN1CCCC1c1cccnc1 (stereo not drawn) [Nicotine]	>5,000 ng/mL

Tested on: 3-Hydroxycotinine MAb 22H9C7
Assay: Competitive microplate ELISA (test principle #1) with immobilized 3HC MAb and 3HC-HRP tracer
Conditions: calculated from IC50 values, 3-Hydroxycotinine MAb 22H9C7
Procedure: as §1
As for the anti-cotinine monoclonal antibody, above, specificity and sensitivity of the anti-3-hydroxycotinine monoclonal antibody (3HC MAb) was determined in competitive microplate ELISA with 3HC and a battery of NIC metabolites and tobacco alkaloids using 3HC-HRP as tracer. […] Apparent 3HC concentrations are inversely related to the OD450 value.

Structure (SMILES)	Reactivity (%)
CN1C(=O)CCC1c1ccc[n+](C2OC(C(=O)[O-])C(O)C(O)C2O)c1 (stereo not drawn) [Cotinine-gluconuride, cotinine-glucuronide]	<1
CN1C(=O)CC[C@H]1c1cccnc1 [Cotinine]	<1
CN1C(=O)C(O[C@@H]2O[C@H](C(=O)O)[C@@H](O)[C@H](O)[C@H]2O)CC1c1cccnc1 (stereo partly drawn) [3-Hydroxycotinine-gluconuride, 3-hydroxycotinine-glucuronide]	<1
CN1C(=O)CC[C@H]1c1ccc[n+]([O-])c1 [Cotinine-N-Oxide, cotinine-N-oxide]	<1
CN1CCCC1c1ccc[n+]([O-])c1 (stereo not drawn) [Nicotine-N-Oxide, Nicotine-N-oxide]	<1
CN1C(=O)C(O)C[C@H]1c1cccnc1 (stereo partly drawn) [3-Hydroxycotinine]	100
CN1CCC[C@H]1c1ccc[n+]([C@@H]2O[C@H](C(=O)[O-])[C@@H](O)[C@H](O)[C@H]2O)c1 [Nicotine-gluconuride, Nicotine-glucuronide]	<1
CN1C(=O)CC[C@@]1(O)c1cccnc1 [5-Hydroxycotinine]	<1
CN1CCCC1c1cccnc1 (stereo not drawn) [Nicotine]	<1

Same assay, conditions: competitor vs 3HC-HRP for 3-Hydroxycotinine MAb 22H9C7

Structure (SMILES)	IC50
CN1C(=O)CCC1c1ccc[n+](C2OC(C(=O)[O-])C(O)C(O)C2O)c1 (stereo not drawn) [Cotinine-gluconuride, cotinine-glucuronide]	>5,000 ng/mL
O=C1CCC(c2cccnc2)N1 (stereo not drawn) [Norcotinine]	>5,000 ng/mL
c1cncc([C@@H]2CCCN2)c1 [Nornicotine]	>5,000 ng/mL
c1cncc(C2=NCCCC2)c1 [Anabaseine]	>5,000 ng/mL
CN1C(=O)CC[C@H]1c1cccnc1 [Cotinine]	>5,000 ng/mL
CN1C(=O)C(O[C@@H]2O[C@H](C(=O)O)[C@@H](O)[C@H](O)[C@H]2O)CC1c1cccnc1 (stereo partly drawn) [3-Hydroxycotinine-gluconuride, 3-hydroxycotinine-glucuronide]	>5,000 ng/mL
CN1C(=O)CC[C@H]1c1ccc[n+]([O-])c1 [Cotinine-N-Oxide, cotinine-N-oxide]	>5,000 ng/mL
CN1CCCC1c1ccc[n+]([O-])c1 (stereo not drawn) [Nicotine-N-Oxide, Nicotine-N-oxide]	>5,000 ng/mL
CN1C(=O)C(O)C[C@H]1c1cccnc1 (stereo partly drawn) [3-Hydroxycotinine]	39.8 ng/mL (≈ 0.207 µM)
c1cncc(-c2ccnc(-c3cccnc3)c2)c1 [Nicotelline]	>5,000 ng/mL
Cn1cccc1-c1cccnc1 [Nicotyrine]	>5,000 ng/mL
C1=CCC(c2cccnc2)NC1 (stereo not drawn) [Anatabine]	>5,000 ng/mL
c1cncc(C2=NCCC2)c1 [Myosmine]	>5,000 ng/mL
CN1CCC[C@H]1c1ccc[n+]([C@@H]2O[C@H](C(=O)[O-])[C@@H](O)[C@H](O)[C@H]2O)c1 [Nicotine-gluconuride, Nicotine-glucuronide]	>5,000 ng/mL
CN1C(=O)CC[C@@]1(O)c1cccnc1 [5-Hydroxycotinine]	>5,000 ng/mL
CN1CCCC1c1cccnc1 (stereo not drawn) [Nicotine]	>5,000 ng/mL
